# Source: publication doi:10.1101/2021.04.29.441652v1 (biorxiv, 2021)
# Target: human σ2 receptor (TMEM97) (Homo sapiens, UniProt Q5BJF2)
# Assay: biochemical
# Type: Expi293 membranes
# Settings: read-out: % of control remaining
# human σ2 receptor (TMEM97), sequence (Q5BJF2 whole entry): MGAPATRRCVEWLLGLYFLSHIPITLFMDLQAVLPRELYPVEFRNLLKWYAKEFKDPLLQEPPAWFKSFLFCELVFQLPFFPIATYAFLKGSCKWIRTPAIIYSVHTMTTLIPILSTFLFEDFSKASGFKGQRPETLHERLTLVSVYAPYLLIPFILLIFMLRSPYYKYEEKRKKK
row,Structure (SMILES),remaining activity at 1 µM [%]
1,O[C@H](CN1CC[C@@H](Cc2nccs2)C1)c1c(F)cccc1F [ZINC000934332177],34
2,C[C@H]1CCCN1CC(=O)N(C)[C@H]1CCN(C(=O)C2CCOCC2)C1 [ZINC000936344871],82.7
3,C[C@H]1CCCN1CC(=O)N(C)[C@H]1CCN(C(=O)CC(C)(C)O)C1 [ZINC000937267298],111
4,Cc1cc(C)nc(C(=O)N2CC[C@H]2CNC(=O)[C@@H]2CCN(C)C2)c1 [ZINC000950078544],108
5,CN(C(=O)c1cccnn1)C1CN(C(=O)[C@H]2CCC[C@H]3CCCN32)C1 [ZINC000955102158],111
6,O=C(C1CCCC1)N1CCC[C@H]([C@@H]2CCN(C/C=C\Cl)C2)C1 [ZINC000961091031],33
7,O=C([C@H]1CCOC1)N1CCOC2(C1)CN(C(=O)[C@@]1(F)CCOC1)C2 [ZINC000965338365],99.1
8,CN(C[C@H]1CCCCO1)[C@@H]1CCN(C(=O)c2nc(Cl)cs2)C1 [ZINC000972168981],63.4
9,O=C(C1CC2(CCC2)C1)N1CCCN(C[C@@H](O)c2ccccc2)CC1 [ZINC000981787500],48.4
10,CCn1ncnc1CN1CCCN(C(=O)C[C@H]2CC(=O)NC2=O)CC1 [ZINC000989806749],118
11,O=C(NCC1CCN([C@H]2CCNC2=O)CC1)c1ccn(C(F)F)n1 [ZINC001001445660],92.1
12,O=C(Cn1cnnn1)N1CC(CNC(=O)C23CCCN2CCC3)C1 [ZINC001003297636],72.3
13,C[C@@H](NC(=O)c1cnnn1C)C1CN(C(=O)C23CCCN2CCC3)C1 [ZINC001006004942],126
14,C[C@@]1(C(=O)N[C@H]2CC23CCN(CC(=O)NC2CC2)CC3)CCNC1=O [ZINC001016825715],106
15,Cc1ccc(C(=O)NC[C@H]2CN(C(=O)[C@@H]3CCN(C)C3)CCCO2)o1 [ZINC001019525589],85
16,C[C@@H](C(N)=O)N1CCC[C@H](CNC(=O)c2nn(C)c3c2CCCC3)C1 [ZINC001023604137],89.3
17,Cc1nc(O)[nH]c1C(=O)NC[C@H]1CCN([C@H](C)C(=O)NC2CC2)C1 [ZINC001028614115],115
18,Cc1ccnc2nc(C(=O)NCC3CN(CCCC4CCC4)C3)nn12 [ZINC001032169623],92.8

row,Structure (SMILES),remaining activity at 1 µM [%]
1,CCN(C(=O)c1cnccn1)[C@@H]1CCN(CC2CCCCCC2)C1 [ZINC001033739722],24.6
2,CCN(C(=O)c1ccnc(C2CC2)n1)[C@H]1CCN(CC2CCC2)C1 [ZINC001033973784],43.3
3,CCc1ocnc1C(=O)NC[C@H]1CN(C[C@@H](C)CC)CCO1 [ZINC001035320653],119
4,C[C@@H](O)CN1CC[C@H](C2CCN(C(=O)CN3CCOCC3)CC2)C1 [ZINC001039123057],115
5,COc1ccnc(CN2CCC3(CC2)CCN(C(=O)C(C)C)C3)c1 [ZINC001040612984],100
6,COCCC(=O)N1CC[C@@](O)(CNC(=O)[C@@H]2CCN(C)C2=O)C1 [ZINC001040614201],117
7,O=C(NCC1(O)CN(C(=O)CCn2ccnc2)C1)[C@H]1CC=CCC1 [ZINC001041431730],98.6
8,O=C([C@@H]1CCCN(CC(F)F)C1)N1CC[C@]2(CCN(CCO)C2)C1 [ZINC001041605786],110
9,CN1CC[C@@H](C(=O)N2CC[C@@]3(CCN(Cc4nnn(C)n4)C3)C2)C1 [ZINC001041828396],103
10,CNC(=O)NCC(=O)N1CC(O)(CNC(=O)c2ccc(F)s2)C1 [ZINC001043696212],84.5
11,CCC[C@@H]1C[C@H]1C(=O)NCC1(O)CN(C(=O)C2CN(C(C)=O)C2)C1 [ZINC001046261579],114
12,Cc1nc[nH]c1C(=O)N1CC(O)(CNC(=O)CN2CC[C@H](C)C2)C1 [ZINC001046685471],101
13,C[C@H](C(=O)NCC1(O)CN(C(=O)Cn2ncnn2)C1)C1CCCC1 [ZINC001046914841],104
14,NC(=O)[C@@H]1CCC[C@@H](C(=O)NCC2(O)CN(C(=O)C3CCC3)C2)C1 [ZINC001046939982],110
15,CC(C)n1cc(C(=O)N2CC(O)(CNC(=O)c3ccnnc3)C2)nn1 [ZINC001047126822],107
16,Cc1ccc(CN2C[C@@H]3CN(C(=O)c4cccn4C)C[C@@H]3C2)cc1C [ZINC001048683995],61.7
17,O=C(Cn1cnnn1)N[C@H]1CCN(c2ncnc3c2CCC3)C[C@H]1O [ZINC001051633080],132

# Second part, the compound after the results:
row,remaining activity at 1 µM [%],Structure (SMILES)
1,107,Cc1nc(C)c(CC(=O)N2CC[C@H](NC(=O)c3cnn[nH]3)C2)c(O)n1 [ZINC000938242679]
2,111,Cc1cc(NC(=O)C(=O)N2CC[C@@H](NC(=O)c3cncn3C)C2)no1 [ZINC000941361883]
3,89.4,Cn1nc(C(=O)N[C@@H]2CCN(C(=O)Cc3cscn3)C2)ccc1=O [ZINC000942457739]
4,112,CCN1CC[C@@H](NC(=O)c2ccnc(-n3cncn3)c2)C[C@@H]1C [ZINC000948091407]
5,96.9,CN(C(=O)c1c[nH]c(=O)cn1)C1CN(C(=O)c2n[nH]c3c2CCC3)C1 [ZINC000955144887]
6,112,CCC(=O)N1CCN([C@H]2CCN(C(=O)c3c[nH]c(=O)cn3)C2)CC1 [ZINC000956566890]
7,91.1,Cc1c(C(=O)N[C@@H]2CN(C(=O)C3=COCCC3)C[C@@H]2O)cnn1C [ZINC000961583379]
8,94.6,CCc1c(C(=O)N[C@@H]2CN(C(=O)c3n[nH]cc3C)C[C@@H]2O)cnn1C [ZINC000968717635]
9,92.8,COc1ccc(C(=O)N[C@@H]2CN(C(=O)C3(C)CCC3)C[C@@H]2O)nn1 [ZINC000970553575]
10,90.9,Cc1cc(C(=O)N2CC[C@H](N(C)Cc3ccc(C)c(C)c3)C2)on1 [ZINC000971070823]
11,111,COCCN1C[C@H](C(=O)N[C@H]2C[C@H](NC(=O)c3cn[nH]c3)C2)CC1=O [ZINC000973057271]
12,111,C[C@@H]1CCN(CC(=O)N[C@H]2C[C@H](NC(=O)c3cnnc(O)c3)C2)C1 [ZINC000973375109]
13,97.2,Cn1nncc1C(=O)NC[C@H]1CC[C@@H](NC(=O)c2cnns2)C1 [ZINC000981250423]
14,104,CC(C)=CC(=O)N1CC[C@@H](CNC(=O)c2ccn(CCN(C)C)n2)C1 [ZINC000982403760]
15,116,CCc1noc(C)c1C(=O)NC1CN(C(=O)[C@H]2CCCCN2C)C1 [ZINC000991393621]
16,123,Cc1c(C(=O)NC2CN(C(=O)c3cnns3)C2)ccc2cncn12 [ZINC000995014137]
17,102,CN1CC[C@H](C(=O)NC2CN(C(=O)Cc3ccc(F)cn3)C2)CC1=O [ZINC000995125582]
18,114,CC(C)NC1CCN(C(=O)Cn2cnc(C(N)=O)n2)CC1 [ZINC000996610565]
19,87.9,Cc1n[nH]cc1C(=O)NC1CN(C(=O)[C@H]2C[C@@H]3CCCCN3C2)C1 [ZINC000997292482]
20,98.3,Cc1cnoc1C(=O)NC1CN(C(=O)[C@@H]2CCN(C)S2(=O)=O)C1 [ZINC000998978244]
21,81.3,O=C(NCC1CN(C(=O)[C@H]2CC[C@H]3CCCCN32)C1)c1cnccn1 [ZINC001000730978]

row,remaining activity at 1 µM [%],Structure (SMILES)
1,109,Cc1cccc(F)c1C(=O)NCC1CCN(CCn2cncn2)CC1 [ZINC001002178741]
2,90.1,CCN1CC[C@@H](N2CCC(NC(=O)c3cncnc3C)CC2)C1=O [ZINC001002391793]
3,85.7,CCc1nnsc1C(=O)NCC1CN(C(=O)[C@H]2CCCN2C)C1 [ZINC001003018745]
4,85.5,CC[C@@H](C(N)=O)N1CCC(NC(=O)[C@H]2Cc3ccc(Cl)cc32)CC1 [ZINC001004070100]
5,87.4,O=C1NCC[C@@H]1C(=O)N[C@H]1CCN(CCn2cc(Cl)cn2)C1 [ZINC001015510639]
6,120,Cn1ccc(N2CC[C@@H](N[C@H]3CCN(C(=O)CC4CCC4)C3)C2=O)n1 [ZINC001018665695]
7,101,Cc1cc(C(=O)N2CC[C@H](NCc3cccc(Cl)c3F)C2)ncn1 [ZINC001018723708]
8,99.6,O=C([C@H]1Cc2ccccc21)N1CC[C@H](NCc2ccncc2Cl)C1 [ZINC001019309159]
9,102,Cc1nc(CN[C@H]2C[C@H](NC(=O)Cn3ncn(C)c3=O)C2)cs1 [ZINC001020327691]
10,86.2,Cc1ccccc1CN[C@H]1C[C@H](NC(=O)c2cn(C)c(=O)nc2O)C1 [ZINC001021041334]
11,106,Cn1cc(CN[C@H]2C[C@H](NC(=O)c3cccc(C(N)=O)n3)C2)cn1 [ZINC001021109191]
12,95.7,Cn1nccc1C(=O)N1C[C@@H](O)[C@H](NC(=O)c2c[nH]nc2C2CC2)C1 [ZINC001025444165]
13,109,Cc1cc(C(=O)NC[C@@H]2CCN(CC(=O)Nc3cnccn3)C2)on1 [ZINC001028403773]
14,102,CN1CCC[C@H]1C(=O)NCC1(O)CN(C(=O)CCc2ncccn2)C1 [ZINC001042098162]
15,125,Cn1nc(C(=O)N2CC(O)(CNC(=O)C3=CCOCC3)C2)ccc1=O [ZINC001042722400]
16,116,CN1CCCC[C@@H]1C(=O)NCC1(O)CN(C(=O)CCc2cn[nH]c2)C1 [ZINC001043772717]
17,88.5,CN(C)c1ccc(C(=O)N2CC(O)(CNC(=O)c3cnn[nH]3)C2)nc1 [ZINC001043817104]
18,105,Cc1ncc(CNC[C@@H]2CN(C(=O)c3cn(C)cn3)CCO2)cn1 [ZINC001051553588]
19,104,CCN1CC[C@H](N2CCC[C@@H](NC(=O)c3ccc(O)nn3)CC2)C1=O [ZINC001052175095]
20,104,COCCn1cc(C(=O)N2C[C@@H](C)[C@@H](NCc3ccccn3)C2)nn1 [ZINC001054647418]
